# Where a SMILES comes first, the peptide text is derived from it.
# System: E. coli MC1061
# Assay: Colony-forming units of E. coli MC1061 pUboABC after IPTG induction
# Format: cell-based
# Settings: wild-type uboA induced, no uboD, three biological replicates
# Protocol: E. coli MC1061 pUboABC and E. coli MC1061 pUboBC cultures were grown. Aliquots of the cultures were sampled prior to and after induction with 10 μM IPTG and 100 μM IPTG, and 10-fold serial dilutions were plated. Colonies were counted 16 h after incubation. […]
# fold serial dilutions were spotted onto LB plates supplemented with 100 μ g/m L ampicillin and 0.2% w/v glucose. Plates were incubated for 16 hours at 37 °C before imaging.
# Colony- Forming Units of E. coli MC1061 pUboABC and E. coli MC1061 pUboBC pUboABC and pUboBC were transformed into electrocompetent E. coli MC1061, plated onto LB plates supplemented with 100 μ g/ m L ampicillin and 0.2% w/v glucose, and incubated at 37 °C for 16 hours. Single colonies were inoculated into LB media supplemented with 100 μ g/ m L ampicillin and 0.2% w/v glucose and shaken at 37 °C for 16 hours. These cultures were then sub-cultured to an OD600 of 0.02 into 50 mL of LB media supplemented with 100 μg/mL ampicillin in a 250 mL flask. Ten-fold serial dilutions of the culture were plated onto LB plates supplemented with 100 μ g/ m L ampicillin and 0.2% w/v glucose. […] All plates were incubated at 37 °C for 16 hours, after which the number of colonies was counted. […]
# A small quantity of DNA was used to reduce the probability of two plasmids being transformed into the same cell. […]
structure (smiles),measurement,value
"CC[C@H](C)[C@@H]1NC(=O)[C@H](CO)NC(=O)CNC(=O)[C@H](CC(=O)O)NC(=O)CNC(=O)CNC(=O)CC[C@@H](C(=O)N[C@@H](Cc2ccc(O)cc2)C(=O)N[C@@H](Cc2ccccc2)C(=O)N[C@@H](CC(N)=O)C(=O)N[C@@H](CCCNC(=N)N)C(=O)N2CCC[C@H]2C(=O)N[C@@H](CCSC)C(=O)N[C@@H](Cc2c[nH]cn2)C(=O)N[C@H](C(=O)N[C@@H](Cc2c[nH]cn2)C(=O)N[C@@H](CC(=O)O)C(=O)N[C@@H](Cc2c[nH]c3ccccc23)C(=O)N[C@@H](CCC(N)=O)C(=O)N[C@H](C(=O)N[C@@H](CCSC)C(=O)N[C@@H](CC(=O)O)C(=O)N[C@@H](CO)C(=O)NCC(=O)N[C@@H](Cc2ccc(O)cc2)C(=O)N[C@@H](Cc2ccc(O)cc2)C(=O)NCC(=O)O)[C@@H](C)CC)[C@@H](C)CC)NC(=O)[C@H](C)NC1=O [WT, ubonodin] (HELM PEPTIDE1{G.G.D.G.S.I.A.E.Y.F.N.R.P.M.H.I.H.D.W.Q.I.M.D.S.G.Y.Y.G}$PEPTIDE1,PEPTIDE1,1:R1-8:R3$$$V2.0; C-terminus assumed)",Reduction in viable cell concentration (CFU per mL) after IPTG induction,3 log
